According to patent US8003627B2, “Urokinase inhibitors” (Universiteit Antwerpen, priority 2005, dated 2011):
Where two headings read alike, the source gives them in different places.

Columns and labels:
tPA = tPA (Homo sapiens, UniProt P00750); test: Selectivity: tPA inhibition, chromogenic substrate S-2288; assay type: biochemical; settings: 1.25 mM substrate, Tris pH 8.3
Procedure: (§1) The IC50 values for plasmin, tPA, thrombin and FXa were determined in the same way as for uPA. […] FX is activated with Russel's Viper Venom.
(§2) Approximately 5 mU of enzyme, and 145 μl of buffer. For tPA and thrombin Tris buffer, pH 8.3, for FXa, Tris buffer pH 8.3 with 2.5 mM CaCl2, for plasmin Tris buffer pH 7.4, and for trypsin Tris buffer pH 8.2 was used. The selectivity index was calculated as (IC50 Enzyme X)/IC50 uPA, where X is tPA, thrombin, plasmin or FXa.

plasmin = target: T1, plasmin (Homo sapiens, UniProt P00747); test: Selectivity: plasmin inhibition, chromogenic substrate S-2366; assay type: biochemical
T1 construct: uPA mediates the proteolytic cleavage of plasminogen to give plasmin
Procedure: as §1, §2

thrombin = thrombin (Homo sapiens, UniProt P00734); test: Selectivity: thrombin inhibition, chromogenic substrate S-2366; assay type: biochemical
Procedure: as §1, §2

FXa = FXa (Homo sapiens, UniProt P00742); test: Selectivity: FXa inhibition, chromogenic substrate S-2772; assay type: biochemical; settings: for inhibition at 250 µM: read-out: % inhibition at given concentration, FXa
Procedure: as §1, §2

uPA [1] = target: T2, uPA (Homo sapiens, UniProt P00749); test: biochemical; assay type: biochemical; set-up: purchased Sigma-Aldrich
Procedure: The substrate was obtained from Chromogenix. The human enzyme was obtained from Sigma-Aldrich, the mouse uPA was obtained from Molecular Innovations.Inc (USA). […] A 50 mM Tris buffer, pH 8.8, was used. […] Activity measurements were routinely performed in duplicate. […] IC50 values were obtained by fitting the data with the 4 parameter logistics equation using Grafit 5. v=(vrange)/(1+exp(s*ln(abs(I0/IC50))))+back s: slope factor back: background v: rate I0: inhibitor concentration range: the fitted uninhibited value minus the background.
The equation assumes that y falls with increasing x.
(§3) Inhibitor stock solutions were prepared in DMSO and stored at −20° C. […] For a simple pseudo-first-order inactivation process, the activity after incubation with inhibitor (vi) varies with the inhibitor concentration (i) as described in the following equation: vi=v0·e^−kit, where v0 is the activity in absence of inhibitor, k is the second-order rate constant of inactivation, and t is the time.

uPA [2] = target: T2, uPA; settings: Tamura et al. 2000; cited from earlier work
uPA [3] = target: T2, uPA; assay type: biochemical; set-up: purchased Sigma-Aldrich; settings: apparent second order rate constant, 250 μM substrate
Procedure: as §3

trypsin = target: T3, trypsin (Bos taurus, UniProt P00760); test: Selectivity: trypsin inhibition, chromogenic substrate BAPNA; assay type: biochemical; settings: 425 μM substrate, Tris pH 8.2
T3 sequence (P00760 24-246): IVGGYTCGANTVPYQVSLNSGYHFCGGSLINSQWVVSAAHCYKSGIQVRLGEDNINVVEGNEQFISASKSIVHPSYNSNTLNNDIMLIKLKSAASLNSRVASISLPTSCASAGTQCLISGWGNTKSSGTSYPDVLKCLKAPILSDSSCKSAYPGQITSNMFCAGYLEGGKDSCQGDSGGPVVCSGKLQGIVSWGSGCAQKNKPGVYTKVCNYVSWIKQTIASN
Procedure: as §1, §2

[4] = 580 μM substrate, Tris pH 7.4, read-out: IC50 (μM) Plasmin
[5] = 580 μM substrate, Tris pH 8.3, read-out: IC50 (μM) Thrombin
[6] = 522 μM substrate, Tris pH 8.3 with […] CaCl2, read-out: IC50 (μM) FXa
[7] = 15-min pre-incubation at 37° C, 250 μM S-2444, Tris pH 8.8, read-out: IC50 (nM) uPA

T1 sequence (P00747 581-810 limits assumed, species assumed): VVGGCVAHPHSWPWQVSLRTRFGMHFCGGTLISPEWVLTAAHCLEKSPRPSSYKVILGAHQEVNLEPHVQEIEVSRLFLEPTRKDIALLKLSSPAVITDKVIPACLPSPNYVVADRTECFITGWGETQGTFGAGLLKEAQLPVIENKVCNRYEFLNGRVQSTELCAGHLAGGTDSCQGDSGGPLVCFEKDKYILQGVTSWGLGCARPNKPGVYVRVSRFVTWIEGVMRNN
T1 sequence (P00747 97-580 partner limits assumed, species assumed): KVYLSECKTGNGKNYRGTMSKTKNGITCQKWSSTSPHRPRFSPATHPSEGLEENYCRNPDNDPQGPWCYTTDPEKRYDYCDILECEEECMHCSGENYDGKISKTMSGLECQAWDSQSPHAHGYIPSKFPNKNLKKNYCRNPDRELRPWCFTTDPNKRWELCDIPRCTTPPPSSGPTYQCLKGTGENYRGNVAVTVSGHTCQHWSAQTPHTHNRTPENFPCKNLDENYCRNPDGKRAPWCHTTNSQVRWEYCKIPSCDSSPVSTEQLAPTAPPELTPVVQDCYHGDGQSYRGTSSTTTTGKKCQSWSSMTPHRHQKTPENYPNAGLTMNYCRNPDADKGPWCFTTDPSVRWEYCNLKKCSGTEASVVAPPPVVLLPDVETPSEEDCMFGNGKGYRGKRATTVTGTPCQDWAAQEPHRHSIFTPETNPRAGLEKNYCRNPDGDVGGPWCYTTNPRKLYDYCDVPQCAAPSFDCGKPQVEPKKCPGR
Chain of tPA (P00750 36-562, species assumed): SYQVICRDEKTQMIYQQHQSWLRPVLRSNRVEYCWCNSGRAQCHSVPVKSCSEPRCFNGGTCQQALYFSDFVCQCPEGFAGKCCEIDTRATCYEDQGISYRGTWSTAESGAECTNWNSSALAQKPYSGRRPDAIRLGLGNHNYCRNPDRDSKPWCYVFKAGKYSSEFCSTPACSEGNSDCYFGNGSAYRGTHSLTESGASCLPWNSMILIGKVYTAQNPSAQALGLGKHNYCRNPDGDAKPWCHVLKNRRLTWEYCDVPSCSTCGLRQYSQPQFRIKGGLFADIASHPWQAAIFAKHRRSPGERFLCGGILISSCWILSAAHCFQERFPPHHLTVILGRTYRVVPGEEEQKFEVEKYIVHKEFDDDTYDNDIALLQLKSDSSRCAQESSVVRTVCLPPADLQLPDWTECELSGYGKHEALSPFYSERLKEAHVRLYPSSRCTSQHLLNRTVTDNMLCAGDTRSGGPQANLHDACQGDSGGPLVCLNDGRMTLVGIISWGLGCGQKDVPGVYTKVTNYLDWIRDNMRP
Chain of FXa (P00742 235-488 limits assumed): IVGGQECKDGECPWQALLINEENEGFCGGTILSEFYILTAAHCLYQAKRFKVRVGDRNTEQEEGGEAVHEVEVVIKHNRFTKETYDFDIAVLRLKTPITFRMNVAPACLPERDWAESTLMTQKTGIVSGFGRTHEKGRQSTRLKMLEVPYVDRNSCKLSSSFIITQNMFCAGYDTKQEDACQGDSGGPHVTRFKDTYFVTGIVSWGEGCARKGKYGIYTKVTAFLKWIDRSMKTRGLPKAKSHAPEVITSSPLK
Chain of FXa (P00742 41-179 partner limits assumed): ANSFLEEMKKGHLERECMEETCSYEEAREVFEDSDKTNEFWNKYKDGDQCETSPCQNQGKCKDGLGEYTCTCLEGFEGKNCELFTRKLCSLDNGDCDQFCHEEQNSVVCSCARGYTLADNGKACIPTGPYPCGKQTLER

CC(=O)Nc1ccc(OP(=O)(Oc2ccc(NC(C)=O)cc2)C(Cc2ccc(NC(=N)N)cc2)NC(=O)OCc2ccccc2)cc1 (centres unmarked) [Compound 9b, Di-(4-acetamidophenyl) 1-(benzyloxycarbonylamino)-2-[(4-guanidino)phenyl]ethanephosphonate]
IC50 (tPA): 7 ± 1 µM | IC50 (plasmin; [4]): 0.9 ± 0.2 µM | IC50 (thrombin; [5]): 0.39 ± 0.03 µM | IC50 (FXa; [6]): 100 ± 24 µM | IC50 (uPA [1]; [7]): 4.2 ± 0.9 nM

CC(=O)Nc1ccc(OP(=O)(Oc2ccc(NC(C)=O)cc2)C(Cc2ccc(NC(=N)N)cc2)NS(C)(=O)=O)cc1 (centres unmarked) [Compound 9c, Di-(4-acetamidophenyl) 1-(methylsulfonylamino)-2-(4-guanidinophenyl)-ethanephosphonate]
IC50 (tPA): 3.7 ± 0.4 µM | IC50 (plasmin; [4]): 2 ± 0.4 µM | IC50 (thrombin; [5]): 2.35 ± 0.06 µM | inhibition at 250 µM (FXa): 55% | IC50 (uPA [1]; [7]): 3.5 ± 0.5 nM

Z-D-Ser-Ala-Arginal
IC50 (uPA [2]): 0.019 µM | selectivity ratio toward tPA (uPA [2]): more than 130

N=C(N)Nc1ccc(CC(NC(=O)NCc2ccccc2)P(=O)(Oc2ccccc2)Oc2ccccc2)cc1 (centres unmarked) [Compound 39b, Diphenyl 1-(3-benzylureido)-2-(4-guanidinophenyl)ethylphosphonate]
IC50 (uPA [1]): 43900 ± 3900 nM

N=C(N)Nc1ccc(CC(NC(=O)OCc2ccccc2)P(=O)(Oc2ccccc2)Oc2ccccc2)cc1 (centres unmarked) [Compound 7b, Diphenyl 1-(benzyloxycarbonylamino)-2-(4-guanidinophenyl)-ethanephosphonate]
IC50 (tPA): 12 ± 0.8 µM | IC50 (plasmin; [4]): 3 ± 0.6 µM | IC50 (thrombin; [5]): 2.4 ± 0.4 µM | IC50 (FXa; [6]): 100 ± 20 µM

CNC(=O)NC(Cc1ccc(NC(=N)N)cc1)P(=O)(Oc1ccccc1)Oc1ccccc1 (centres unmarked) [Compound 39a, Diphenyl 2-(4-guanidinophenyl)-1-(3-methylureido)ethylphosphonate]
IC50 (uPA [1]): 101000 ± 6800 nM

CC(=O)NC(Cc1ccc(NC(=N)N)cc1)P(=O)(Oc1ccccc1)Oc1ccccc1 (centres unmarked) [Compound 41, Diphenyl 1-acetamido-2-(4-guanidinophenyl)ethylphosphonate]
IC50 (plasmin; [4]): 57 ± 1.3 µM | IC50 (thrombin; [5]): 32.2 ± 1.4 µM | IC50 (uPA [1]): 9.9 ± 0.8 nM

N=C(N)c1ccc(CC(NC(=O)OCc2ccccc2)P(=O)(Oc2ccccc2)Oc2ccccc2)cc1 (centres unmarked) [Compound 8b, Diphenyl 1-(N-benzyloxycarbonylamino)-2-(4-amidinophenyl)ethanephosphonate]
IC50 (tPA): 4 ± 2 µM | IC50 (plasmin; [4]): 1.2 ± 0.1 µM | IC50 (thrombin; [5]): 20 ± 2 µM | inhibition at 250 µM (FXa): 65%

COC(=O)NC(Cc1ccc(NC(=N)N)cc1)P(=O)(Oc1ccccc1)Oc1ccccc1 (centres unmarked) [Compound 35a, Methyl 1-(diphenoxyphosphoryl)-2-(4-guanidinophenyl)ethylcarbamate]
IC50 (tPA): 23 ± 6 µM | IC50 (plasmin): 12.8 ± 2 µM | IC50 (thrombin): 16.6 ± 2.3 µM | IC50 (uPA [1]; [7]): 3.1 ± 0.5 nM | kapp (M^−1 · s^−1) uPA (uPA [3]): 62000 M⁻¹ s⁻¹

N=C(N)Nc1ccc(CC(N)P(=O)(Oc2ccccc2)Oc2ccccc2)cc1 (centres unmarked) [Compound 34d, Diphenyl 1-amino-2-(4-guanidinophenyl)ethylphosphonate]
IC50 (uPA [1]; [7]): 1600 ± 130 nM

CCOC(=O)NC(Cc1ccc(NC(=N)N)cc1)P(=O)(Oc1ccccc1)Oc1ccccc1 (centres unmarked) [Compound 35c, Ethyl 1-(diphenoxyphosphoryl)-2-(4-guanidinophenyl)ethylcarbamate]
IC50 (tPA): 57 ± 14 µM | IC50 (plasmin; [4]): 16 ± 3 µM | IC50 (thrombin; [5]): 3.8 ± 0.2 µM | IC50 (uPA [1]; [7]): 8 ± 3 nM | kapp (M^−1 · s^−1) uPA (uPA [3]): 40000 M⁻¹ s⁻¹

CCC(NC(=O)OCc1ccccc1)(c1ccc(C(=N)N)cc1)P(=O)(Oc1ccccc1)Oc1ccccc1 (centres unmarked) [Compound 8c, Diphenyl 1-(N-benzyloxycarbonylamino)-1-(4-amidinophenyl)propanephosphonate]
IC50 (tPA): 68 ± 9 µM | IC50 (plasmin; [4]): 6.2 ± 0.4 µM | IC50 (thrombin; [5]): 17 ± 2 µM | IC50 (FXa; [6]): 13.7 ± 1.3 µM | IC50 (trypsin): 3.5 ± 0.2 µM

CS(=O)(=O)NC(Cc1ccc(NC(=N)N)cc1)P(=O)(Oc1ccccc1)Oc1ccccc1 (centres unmarked) [Compound 7g, Diphenyl 1-(methylsulfonylamino)-2-(4-guanidinophenyl)-ethanephosphonate]
IC50 (tPA): 8 ± 2 µM | IC50 (plasmin; [4]): 11 ± 1 µM | IC50 (thrombin): ~125 µM | IC50 (FXa): ~250 µM

Diphenyl 1-(naphthalenesulfonylamino)-2-(4-guanidinophenyl)-ethanephosphonate [Compound 7e]
IC50 (tPA): 44 ± 10 µM | IC50 (plasmin; [4]): 1.2 ± 0.1 µM | IC50 (thrombin; [5]): 8.1 ± 0.8 µM | IC50 (FXa; [6]): 27 ± 2 µM | IC50 (trypsin): 0.28 ± 0.05 µM

N=C(N)c1ccc(C(NC(=O)OCc2ccccc2)P(=O)(Oc2ccccc2)Oc2ccccc2)cc1 (centres unmarked) [Compound 8a, Diphenyl 1-(N-benzyloxycarbonylamino)-1-(4-amidinophenyl)methanephosphonate]
IC50 (tPA): 66 ± 7 µM | IC50 (plasmin; [4]): 3.6 ± 0.4 µM | IC50 (thrombin; [5]): 0.288 ± 0.006 µM | IC50 (FXa; [6]): 6 ± 0.2 µM

N=C(N)Nc1ccc(CC(NC(=O)c2ccccc2)P(=O)(Oc2ccccc2)Oc2ccccc2)cc1 (centres unmarked) [Compound 7c, Diphenyl 1-(benzoylamino)-2-(4-guanidinophenyl)-ethanephosphonate]
IC50 (tPA): 125 µM | IC50 (plasmin; [4]): 14 ± 1 µM | IC50 (FXa): > 250 µM | IC50 (uPA [1]; pH 8.8, read-out: IC50 (nM) uPA): 114 ± 11 nM

CC(C)c1ccc(C(C)C)c(S(=O)(=O)NC(Cc2ccc(NC(=N)N)cc2)P(=O)(Oc2ccccc2)Oc2ccccc2)c1C(C)C (centres unmarked) [Compound 7f, Diphenyl 1-(2,3,6-tri-isopropylbenzenesulfonyl)amino-2-(4-guanidinophenyl)-ethanephosphonate]
IC50 (tPA): 16 ± 1 µM | IC50 (plasmin; [4]): ~125 µM | % inhibition at given concentration, Thrombin (thrombin; at 250 μM): 60% @ | IC50 (FXa; [6]): 20 ± 2 µM | IC50 (trypsin): 5.6 ± 0.04 µM

Cc1ccccc1S(=O)(=O)NC(Cc1ccc(NC(=N)N)cc1)P(=O)(Oc1ccccc1)Oc1ccccc1 (centres unmarked) [Compound 7d, Diphenyl 1-(o-toluenesulfonylamino)-2-(4-guanidinophenyl)-ethanephosphonate]
IC50 (tPA): 7.3 ± 0.5 µM | IC50 (plasmin; [4]): 17 ± 2 µM | IC50 (thrombin; [5]): 11.9 ± 1.7 µM | % inhibition at given concentration, FXa (FXa; at 62 μM): 59% @ | IC50 (trypsin): 0.17 ± 0.01 µM
